Source: patent publication US9422262B2, “Compounds and methods for treating diseases mediated by protease activated receptors” (The Broad Institute, Inc., priority 2010, dated 2016)

Tests used:
cAMP production = cAMP production in washed platelets (competitive immunoassay); type: cell-based, human; settings: 10 μM, PGE1 as control
Protocol: For this assay, platelets obtained from individual donors were washed and incubated with the probe. Platelets exposed to PGE1 (which causes elevation of platelet cAMP levels) are used as controls. Following incubation, platelets are lysed and evaluated in a commercially available competitive immunoassay of cAMP. Compounds that raise cAMP levels less than 50% of that of PGE1 are considered negative in this assay.

platelets [1] = experiment: PMA- or Ca2+ ionophore-induced platelet activation (P-selectin, flow cytometry); type: cell-based, human; settings: washed platelets, 6 point dose curve
Protocol: For these assays, the probe is incubated with washed platelets obtained from individual donors in a 6 point dose curve. Platelets are subsequently stimulated with either PMA or Ca2+ ionophore. After 15 minutes, phycoerythrin-labeled anti-P-selectin antibody (BD Biosciences) is added to the incubation mixture. Following a 20-minute incubation, a sample is analyzed by flow cytometry for staining of P-selectin.

platelets [2] = experiment: P-selectin surface expression on platelets activated with other platelet agonists; type: cell-based, human; settings: FIG. 1A
Protocol: (§1) To confirm the specificity of compound 1 for PAR1, platelets were incubated with compound 1 and subsequently activated with a variety of platelet agonists. P-selectin surface expression was monitored to detect platelet activation. […] In contrast, an IC50 for inhibition of other agonists was not reached even at concentrations >30-fold its IC50 for PAR1-mediated secretion. To further evaluate whether PAR1 is the target of compound 1, we tested the ability of the compound to inhibit Ca^2+ flux in HEK293 cells overexpressing recombinant PAR1.

permeabilized platelets = experiment: GTP-γ-S induced P-selectin surface expression in permeabilized platelets; type: cell-based, human; settings: FIG. 1C
Protocol: as §1

[3] = system: Gα12 signaling downstream of PAR1; experiment: PAR1-mediated transmembrane resistance (TER) in MDCK cells overexpressing Gα12; type: cell-based; settings: FIG. 3B
Description: (§2) This pattern of inhibition is consistent with that of an allosteric inhibitor. […] This observation raised the possibility that compound 1 blocks PAR1 signaling through Gαq (which mediates platelet aggregation downstream of PAR1), but not Gα12/13 (which mediates shape change downstream of PAR1). A previously identified PAR1 inhibitor, 3,5-difluoro aminoisoxazole (3,5-DFAI), inhibited both shape change and aggregation. Shape change that occurred in the presence of compound 1 was blocked by the Rho kinase inhibitor Y27632, confirming participation of Rho kinase downstream of Gα12/13 in compound-1-resistance shape change (FIG. 3A). […] PAR1-mediated decrease in TER in these cells is dependent on Gα12. […] In contrast, 3,5-DFAI inhibited SFLLRN-mediated decrease in TER (FIG. 3B) and compound 1 inhibited Gαq-mediated Ca^2+ flux in these MDCK cells (FIG. 3C).

Gαq-mediated Ca2+ flux = experiment: SFLLRN-induced Gαq-mediated Ca2+ flux in MDCK cells; type: cell-based; settings: FIG. 3C
Description: as §2

mouse PAR4 = biological target: T1, mouse PAR4 (Mus musculus, UniProt O88634); experiment: PAR4-mediated aggregation of mouse platelets; type: cell-based; settings: FIG. 4A
T1 construct: Aggregation studies using mouse platelets; endogenous in cells; host or cells: mouse platelets
T1 sequence (O88634 17-396): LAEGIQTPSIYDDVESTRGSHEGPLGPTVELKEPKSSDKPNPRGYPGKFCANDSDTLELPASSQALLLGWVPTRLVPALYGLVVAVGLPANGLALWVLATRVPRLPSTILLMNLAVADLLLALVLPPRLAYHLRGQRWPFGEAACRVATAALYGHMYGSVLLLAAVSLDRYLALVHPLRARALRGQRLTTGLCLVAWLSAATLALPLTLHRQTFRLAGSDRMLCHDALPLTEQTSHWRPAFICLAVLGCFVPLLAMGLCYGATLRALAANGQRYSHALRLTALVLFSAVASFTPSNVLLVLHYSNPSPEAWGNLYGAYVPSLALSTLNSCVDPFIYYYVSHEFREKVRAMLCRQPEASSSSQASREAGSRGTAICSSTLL

thrombus formation = experiment: Thrombus formation following laser-induced injury of the cremaster arteriole in mice; type: in vivo
Description: PAR1 is the thrombin receptor on human platelets and serves an important function in mediating thrombus formation. We tested compound 1 to determine whether it inhibited thrombus formation following laser-induced injury of the cremaster arteriole in mice. The dominant PAR receptor on mouse platelets is PAR4. However, since compound 1 acts at a non-orthosteric site and mouse PAR4 differs from human PAR4, we reasoned that compound 1 may be able to block mouse PAR4. […] When infused into mice at a concentration of 5 mg/kg, compound 1 inhibited platelet accumulation during thrombus formation by >90% (FIG. 4B). Infusion of 5 mg/kg also impaired fibrin generation during thrombus formation (FIG. 4C). Thus, compound 1 blocks both cellular- and coagulation protein-mediated arms of thrombus formation. […] The compound was therefore infused every 30 minutes during the course of these experiments. The short half-life of compound 1 in vivo may be useful in scenarios in which anticoagulation is only required for a short period of time or when anticoagulation needs to be reversed quickly, such as anticoagulation prior to invasive procedures or surgery.
(§3) Since there are also situations in which longer term anticoagulation is desired, we performed further studies in the thrombus formation model to assess analogs of compound 1 that may have a more long-lived effect. […] This instability in mouse plasma may have contributed to its short half-life of efficacy in vivo.

[4] = Stability in mouse plasma; type: in vitro ADME
Description: as §3

[5] = Stability in human plasma; type: in vitro ADME
Description: as §3

PAR1 = biological target: T2, PAR1 (Homo sapiens, UniProt P25116); experiment: Ca2+ flux in HEK293 cells overexpressing recombinant PAR1; type: cell-based; parameters: expressed in transfected cells; host or cells: HEK293; settings: concentrations similar to those for inhibition of P-selectin expression; FIG. 1B
T2 sequence (P25116 22-425): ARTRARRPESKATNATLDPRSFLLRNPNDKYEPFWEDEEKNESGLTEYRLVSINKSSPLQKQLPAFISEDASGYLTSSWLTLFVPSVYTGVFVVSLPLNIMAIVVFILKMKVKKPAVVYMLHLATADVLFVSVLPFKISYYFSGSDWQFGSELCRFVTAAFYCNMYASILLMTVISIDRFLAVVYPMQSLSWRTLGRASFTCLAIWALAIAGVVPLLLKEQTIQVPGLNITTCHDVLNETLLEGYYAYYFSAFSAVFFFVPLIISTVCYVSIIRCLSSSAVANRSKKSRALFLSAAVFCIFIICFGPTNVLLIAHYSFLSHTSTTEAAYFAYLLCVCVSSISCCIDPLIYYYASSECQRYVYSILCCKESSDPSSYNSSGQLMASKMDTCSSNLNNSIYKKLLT

concentration tested without reaching an IC50 for other agonists, relative to IC50 for PAR1-mediated secretion (platelets [2]): > 30 fold
IC50 for inhibition of other agonists (platelets [2]; P-selectin surface expression): not reached
PAR4-mediated aggregation of mouse platelets (mouse PAR4): inhibits
remaining after 5 hour incubation in mouse plasma [4]: 1.7%
stability in human plasma [5]: good stability
changes in Ca2+ flux in HEK293 cells overexpressing recombinant PAR1 (PAR1): inhibits
Structure (SMILES): CCCC(=O)Nc1cccc(NC(=O)c2ccccc2Br)c1 [Compound 1]
modulation of cAMP production (cAMP production): inactivity
effect on Ca2+ ionophore-induced activation of platelets (platelets [1]): did not show any effect
effect on PMA-induced activation of platelets (platelets [1]): did not show any effect
P-selectin surface expression induced by GTP-γ-S (permeabilized platelets): fails to inhibit
PAR1-mediated (SFLLRN) change in TER [3]: failed to inhibit
Gαq-mediated Ca2+ flux (Gαq-mediated Ca2+ flux): inhibited
inhibition of platelet accumulation during thrombus formation (thrombus formation; 5 mg/kg infused every 30 minutes, FIG. 4B): > 90%
fibrin generation during thrombus formation (thrombus formation; infusion of 5 mg/kg, FIG. 4C): impaired
